Laboratory results taken from ChEMBL document CHEMBL5576132 (J Med Chem, 2024).
Calls of active or inactive are those of the source. The rule behind the calls is not given here.

How the values were obtained:
[1] = target: Induced myeloid leukemia cell differentiation protein Mcl-1 (Homo sapiens) (UniProt Q07820); details: time 3.0 hrs
[2] = Dose normalized AUC in mouse at 25 mg/kg, iv by HPLC-MS/MS analysis; format: ADME, organism-based; details: in vivo
[3] = Clearance in dog assessed as hepatic blood flow at 0.25 mg/kg, iv by HPLC-MS/MS analysis; format: ADME, organism-based, Canis lupus familiaris, Liver; details: in vivo
NCI-H929 [4] = assay: Growth inhibition of human NCI-H929 cells measured after 72 to 96 hrs by cell-titer glo assay; format: functional; details: time 72-96 hrs
K562 = assay: Growth inhibition of human K562 cells measured after 72 to 96 hrs by cell-titer glo assay; format: functional; details: time 72-96 hrs
[5] = Dose normalized AUC in mouse at 20 mg/kg, iv by HPLC-MS/MS analysis; format: ADME, organism-based; details: in vivo
[6] = Clearance in dog assessed as hepatic blood flow at 0.9 mg/kg, iv by HPLC-MS/MS analysis; format: ADME, organism-based, Canis lupus familiaris, Liver; details: in vivo
[7] = AUC in CB17/Icr-Prkdc(scid)/IcrCrl mouse at 60 mg/kg, iv administered daily for 7 days and measured upto 21 days in presence of (R)-7-(7-Chloro-10-(3-(4-chloro-3,5-dimethylphenoxy)propyl)-4-methyl-1-oxo-6-(2,4,6-trimethylpyrimidin-5-yl)-3,4-dihydropyrazino[1,2-a]indol-2(1H)-yl)-4-methoxy-1-methyl-5-((tetrahydro-2H-pyran-4-yl)methoxy)-1H-indole-2-carboxylic Acid; format: ADME, organism-based; details: in vivo, time < 21 day
A-427 [8] = assay: Antitumor activity against human A-427 cells xenografted in CB17/Icr-Prkdc(scid)/IcrCrl mouse model assessed as tumor regression at 10 mg/kg, iv administered daily for 7 days and measured upto 21 days; format: functional, organism-based; details: time <= 21.0 day
A-427 [9] = assay: Antitumor activity against human A-427 cells xenografted in CB17/Icr-Prkdc(scid)/IcrCrl mouse model assessed as tumor regression at 60 mg/kg, iv administered daily for 7 days and measured upto 21 days in presence of docetaxel; format: functional, organism-based; details: time <= 21.0 day
[10] = Toxicity in CB17/Icr-Prkdc(scid)/IcrCrl mouse assessed as reduction in tumor area at 10 mg/kg, iv measured after 21 days by H and E staining based analysis; format: organism-based; details: in vivo, 504 h, time 21 day
[11] = Toxicity in CB17/Icr-Prkdc(scid)/IcrCrl mouse assessed as reduction in tumor area at 10 mg/kg, iv measured after 21 days by Ki67 staining based analysis; format: organism-based; details: in vivo, 504 h, time 21 day
NCI-H1048 [12] = assay: Antitumor activity against human NCI-H1048 cells xenografted in BomTac:NMRI-Foxn1nu mouse model assessed as tumor growth inhibition at 60 mg/kg, iv administered daily for 7 days and measured upto 16 days in presence of topotecan relative to control; format: functional; details: NCI-H1048, 384 h, time <= 16 day, read-out: TGI
[13] = Dose normalized AUC in mouse at 5 mg/kg, iv by HPLC-MS/MS analysis; format: ADME, organism-based; details: in vivo
[14] = Clearance in dog assessed as hepatic blood flow at 0.5 mg/kg, iv by HPLC-MS/MS analysis; format: ADME, organism-based, Canis lupus familiaris, Liver; details: in vivo
Cytochrome P450 3A4 [15] = target: T1, Cytochrome P450 3A4 (Homo sapiens, UniProt P08684); assay: Inhibition of CYP3A4 (unknown origin); format: ADME
T1 sequence (P08684 whole entry): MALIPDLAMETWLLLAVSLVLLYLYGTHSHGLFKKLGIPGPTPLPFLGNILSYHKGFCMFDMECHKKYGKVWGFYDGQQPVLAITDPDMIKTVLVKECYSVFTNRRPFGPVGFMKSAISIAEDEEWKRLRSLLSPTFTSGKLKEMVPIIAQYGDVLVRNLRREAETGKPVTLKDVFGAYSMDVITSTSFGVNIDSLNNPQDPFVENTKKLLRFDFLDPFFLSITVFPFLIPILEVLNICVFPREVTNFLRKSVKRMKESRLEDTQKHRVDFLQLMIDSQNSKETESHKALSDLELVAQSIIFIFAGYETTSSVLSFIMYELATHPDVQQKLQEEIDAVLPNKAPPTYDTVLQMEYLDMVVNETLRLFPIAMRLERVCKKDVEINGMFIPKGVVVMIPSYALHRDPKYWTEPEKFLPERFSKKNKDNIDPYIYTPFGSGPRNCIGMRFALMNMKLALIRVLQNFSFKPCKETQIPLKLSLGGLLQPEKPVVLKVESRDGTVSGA

Cytochrome P450 2C8 = target: T2, Cytochrome P450 2C8 (Homo sapiens, UniProt P10632); assay: Inhibition of CYP2C8 (unknown origin); format: ADME
T2 sequence (P10632 whole entry): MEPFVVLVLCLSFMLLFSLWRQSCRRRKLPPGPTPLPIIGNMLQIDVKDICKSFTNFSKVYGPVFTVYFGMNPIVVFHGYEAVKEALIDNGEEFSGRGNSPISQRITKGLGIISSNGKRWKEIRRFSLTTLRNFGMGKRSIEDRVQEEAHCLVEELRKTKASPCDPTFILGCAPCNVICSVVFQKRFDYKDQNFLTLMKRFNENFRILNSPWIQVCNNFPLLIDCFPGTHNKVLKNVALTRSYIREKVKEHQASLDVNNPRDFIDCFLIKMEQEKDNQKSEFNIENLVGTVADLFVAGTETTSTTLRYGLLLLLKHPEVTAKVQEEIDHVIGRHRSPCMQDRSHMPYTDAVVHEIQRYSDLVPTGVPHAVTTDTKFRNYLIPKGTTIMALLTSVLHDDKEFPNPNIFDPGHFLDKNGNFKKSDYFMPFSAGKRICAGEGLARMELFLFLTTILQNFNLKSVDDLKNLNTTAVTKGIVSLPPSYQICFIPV

Cytochrome P450 3A4 [16] = target: T1, Cytochrome P450 3A4; assay: Time dependent inhibition of CYP3A4 (unknown origin) relative to control; format: ADME
A-427 [17] = assay: Antiproliferative activity against human A-427 cells at upto 1000 nM measured after 72 to 96 hrs in presence of docetaxel by cell-titer glo assay; format: functional, cell-based; details: time 72-96 hrs
[18] = Toxicity in CB17/Icr-Prkdc(scid)/IcrCrl mouse assessed as effect on body weight at 60 to 80 mg/kg, iv administered as single dose measured after 15 days; format: organism-based; details: in vivo, 360 h, dose 60-80 mg/kg, time 15 day
NCI-H929 [19] = assay: Antitumor activity against human NCI-H929 cells xenografted in CB17/Icr-Prkdc(scid)/IcrCrl mouse assessed as disruption of Mcl-1:BIM complex; format: functional, cell-based; details: time <= 48.0 hrs, TDE = time-dependent effect
NCI-H929 [20] = assay: Antitumor activity against human NCI-H929 cells xenografted in CB17/Icr-Prkdc(scid)/IcrCrl mouse model assessed as increase in […] activity measured upto 48 hrs by glo reagent based analysis; format: functional, cell-based
[21] = AUC in CB17/Icr-Prkdc(scid)/IcrCrl mouse at 60 mg/kg, iv administered daily for 7 days and measured upto 21 days in presence of docetaxel; format: ADME, organism-based; details: in vivo, time < 21 day
[22] = Plasma protein binding (unknown origin); format: ADME, cell-free; details: read-out: PPB (converted)
NCI-H1048 [23] = assay: Antitumor activity against human NCI-H1048 cells xenografted in BomTac:NMRI-Foxn1nu mouse model assessed as tumor growth regression at 60 mg/kg, iv administered daily for 7 days and measured upto 16 days in presence of topotecan; format: functional, organism-based; details: time <= 16.0 day
[24] = Toxicity in CB17/Icr-Prkdc(scid)/IcrCrl mouse assessed as reduction in tumor area at 60 mg/kg, iv measured after 21 days by H and E staining based analysis; format: organism-based; details: in vivo, 504 h, time 21 day
[25] = Toxicity in CB17/Icr-Prkdc(scid)/IcrCrl mouse assessed as reduction in tumor area at 60 mg/kg, iv measured after 21 days by Ki67 staining based analysis; format: organism-based; details: in vivo, 504 h, time 21 day
[26] = Toxicity in CB17/Icr-Prkdc(scid)/IcrCrl mouse assessed as reduction in tumor area at 60 mg/kg, iv measured after 21 days in presence of docetaxel by H and E staining based analysis; format: organism-based; details: in vivo, 504 h, time 21 day
[27] = Toxicity in CB17/Icr-Prkdc(scid)/IcrCrl mouse assessed as reduction in tumor area at 60 mg/kg, iv measured after 21 days presence of docetaxel by Ki67 staining based analysis; format: organism-based; details: in vivo, 504 h, time 21 day

Chain of Induced myeloid leukemia cell differentiation protein Mcl-1 (Homo sapiens) (Q07820 whole entry): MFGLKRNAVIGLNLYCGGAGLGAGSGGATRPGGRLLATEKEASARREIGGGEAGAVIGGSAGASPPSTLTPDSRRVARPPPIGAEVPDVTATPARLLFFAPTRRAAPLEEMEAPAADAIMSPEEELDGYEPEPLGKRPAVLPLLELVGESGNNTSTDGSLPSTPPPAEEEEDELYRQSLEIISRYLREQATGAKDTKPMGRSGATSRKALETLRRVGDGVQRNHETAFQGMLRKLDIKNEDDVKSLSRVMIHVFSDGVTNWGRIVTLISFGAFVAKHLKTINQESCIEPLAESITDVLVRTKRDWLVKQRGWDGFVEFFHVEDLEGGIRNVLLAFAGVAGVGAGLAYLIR

For `Cc1cc(OCCCc2c3n(c4c(-c5c(C)nn(C)c5C)c(Cl)ccc24)[C@H](C)CN(c2cccc4cc(C(=O)O)n(C)c24)C3=O)cc(C)c1Cl`, the Activity [1] was “inactive”.

Molecule `COCCOc1cc(N2C[C@@H](C)n3c(c(CCCOc4cc(C)c(Cl)c(C)c4)c4ccc(Cl)c(-c5c(C)nc(C)nc5C)c43)C2=O)c2c(cc(C(=O)O)n2C)c1OC` has an AUC/dose [2] of 334 nM·h/mg/kg and a QH [3] of 50%.

For `COc1c(O[C@@H]2CCOC2)cc(N2C[C@@H](C)n3c(c(CCCOc4cc(C)c(Cl)c(C)c4)c4ccc(Cl)c(-c5c(C)nc(C)nc5C)c43)C2=O)c2c1cc(C(=O)O)n2C`, the GI50 (NCI-H929 [4]) was 0.026 µM, the GI50 (K562) was over 12 µM and the AUC/dose [5] was 1420 nM·h/mg/kg.

`COc1c(OC[C@@H]2CCCO2)cc(N2C[C@@H](C)n3c(c(CCCOc4cc(C)c(Cl)c(C)c4)c4ccc(Cl)c(-c5c(C)nc(C)nc5C)c43)C2=O)c2c1cc(C(=O)O)n2C` showed an AUC/dose [5] of 2190 nM·h/mg/kg and a QH [6] of 29%.

Molecule `COc1c(OC[C@H]2CCCO2)cc(N2C[C@@H](C)n3c(c(CCCOc4cc(C)c(Cl)c(C)c4)c4ccc(Cl)c(-c5c(C)ncnc5C)c43)C2=O)c2c1cc(C(=O)O)n2C` has an AUC/dose [2] of 1480 nM·h/mg/kg.

Work on `COc1c(OCC2CCOCC2)cc(N2C[C@@H](C)n3c(c(CCCOc4cc(C)c(Cl)c(C)c4)c4ccc(Cl)c(-c5c(C)ncnc5C)c43)C2=O)c2c1cc(C(=O)O)n2C` yielded an AUC/dose [5] of 2830 nM·h/mg/kg.

With `CC(=O)O[C@@]12CO[C@@H]1C[C@H](O)[C@@]1(C)C(=O)[C@H](O)C3=C(C)[C@@H](OC(=O)[C@H](O)[C@@H](NC(=O)OC(C)(C)C)c4ccccc4)C[C@@](O)([C@@H](OC(=O)c4ccccc4)[C@H]21)C3(C)C` [DOCETAXEL ANHYDROUS] the AUC at 504 h [7] was 0.0234 µM·h, the Activity (A-427 [8]) was “Active” and the Activity (A-427 [9]) was “Active”. For the same molecule, the Activity [10] was “Non-Toxic” and the Activity [11] was “Non-Toxic”.

With `CC[C@@]1(O)C(=O)OCc2c1cc1n(c2=O)Cc2cc3c(CN(C)C)c(O)ccc3nc2-1` [TOPOTECAN] the inhibition in vivo at 60 mg/kg (NCI-H1048 [12]) was 108%.

For `COc1c(OC[C@H]2CCCO2)cc(N2C[C@@H](C)n3c(c(CCCOc4cc(C)c(Cl)c(C)c4)c4ccc(Cl)c(-c5c(C)nc(C)nc5C)c43)C2=O)c2c1cc(C(=O)O)n2C`, the AUC/dose [5] was 2510 nM·h/mg/kg.

Molecule `CCOc1c(O[C@H]2CCOC2)cc(N2C[C@@H](C)n3c(c(CCCOc4cc(C)c(Cl)c(C)c4)c4ccc(Cl)c(-c5c(C)nc(C)nc5C)c43)C2=O)c2c1cc(C(=O)O)n2C` has an AUC/dose [5] of 2460 nM·h/mg/kg.

For `CCOc1c(OCC2CCOCC2)cc(N2C[C@@H](C)n3c(c(CCCOc4cc(C)c(Cl)c(C)c4)c4ccc(Cl)c(-c5c(C)nc(C)nc5C)c43)C2=O)c2c1cc(C(=O)O)n2C`, the AUC/dose [5] was 4930 nM·h/mg/kg.

`COc1c(O[C@H]2CCOC2)cc(N2C[C@@H](C)n3c(c(CCCOc4cc(C)c(Cl)c(C)c4)c4ccc(Cl)c(-c5c(C)nc(C)nc5C)c43)C2=O)c2c1cc(C(=O)O)n2C` gave a GI50 (NCI-H929 [4]) of 0.022 µM, a GI50 (K562) of 8 µM and an AUC/dose [13] of 1860 nM·h/mg/kg. For the same molecule, the QH [6] was 38%.

With `COc1c(OCC2CCOCC2)cc(N2C[C@@H](C)n3c(c(CCCOc4cc(C)c(Cl)c(C)c4)c4ccc(Cl)c(-c5c(C)nc(C)nc5C)c43)C2=O)c2c1cc(C(=O)O)n2C` the AUC/dose [2] was 9000 nM·h/mg/kg, the QH [14] was 17% and the IC50 (Cytochrome P450 3A4 [15]) was 1.8 µM. For the same molecule, the IC50 (Cytochrome P450 2C8) was 2.1 µM, the TDI (Cytochrome P450 3A4 [16]) was 67% and the Activity (A-427 [17]) was “Active”. The Activity [18] was “Non-Toxic”, the Activity (NCI-H929 [19]) was “Tde” and the Activity (NCI-H929 [20]) was “Active”. The AUC at 504 h [21] was 0.382 µM·h, the fraction unbound [22] was 0.002 and the Activity (NCI-H1048 [23]) was “Active”. For the same molecule, the Activity [24] was “Non-Toxic”, the Activity [25] was “Non-Toxic” and the Activity [26] was “Non-Toxic”. For the same molecule, the Activity [27] was “Non-Toxic”.

Molecule `COCCOc1cc(N2C[C@@H](C)n3c(c(CCCOc4cc(C)c(Cl)c(C)c4)c4ccc(Cl)c(-c5c(C)ncnc5C)c43)C2=O)c2c(cc(C(=O)O)n2C)c1OC` has an AUC/dose [2] of 380 nM·h/mg/kg.
